Results published in ChEMBL document CHEMBL1136553, “Synthesis and biological evaluation of novel 1 beta-methylcarbapenems with isothiazoloethenyl side chains” (Bioorg Med Chem Lett, 2003).
≈ marks a conversion by molar mass, not a printed value.

Key:
[1] = test system: Pseudomonas aeruginosa; assay: Antibacterial activity against Pseudomonas aeruginosa 1771M; type: functional
[2] = Stability to porcine renal DHP-I; type: ADME, Sus scrofa; conditions: pig
[3] = test system: Mus musculus; assay: In vivo therapeutic efficacy in systemic infections caused by Pseudomonas aeruginosa 1771M in mice, at a single subcutaneous administration; type: functional; conditions: sc, read-out: PD50
[4] = test system: Staphylococcus aureus; assay: Antibacterial activity against Staphylococcus aureus 285; type: functional
[5] = test system: Streptococcus pyogenes; assay: Antibacterial activity against Streptococcus pyogenes 308A; type: functional
[6] = test system: Salmonella typhimurium; assay: Antibacterial activity against Salmonella Typhimurium; type: functional, Salmonella enterica subsp. enterica serovar Typhimurium; conditions: Salmonella enterica
[7] = test system: Mus musculus; assay: In vivo therapeutic efficacy in systemic infections caused by Streptococcus pyogenes 77A in mice, at a single subcutaneous administration; type: functional; conditions: sc, read-out: PD50
[8] = test system: Pseudomonas aeruginosa; assay: Antibacterial activity against Pseudomonas aeruginosa 1592E; type: functional
[9] = test system: Escherichia coli; assay: Antibacterial activity against Escherichia coli 1507E; type: functional
[10] = test system: Staphylococcus aureus; assay: Antibacterial activity against Staphylococcus aureus 503; type: functional
[11] = test system: Staphylococcus aureus; assay: Antibacterial activity against Staphylococcus aureus SG 511; type: functional
[12] = test system: Escherichia coli; assay: Antibacterial activity against Escherichia coli 078; type: functional
[13] = test system: Mus musculus; assay: In vivo therapeutic efficacy in systemic infections caused by Staphylococcus aureus Y-80-1953 in mice, at a single subcutaneous administration; type: functional; conditions: sc, read-out: PD50
[14] = test system: Enterobacter cloacae; assay: Antibacterial activity against Enterobacter cloacae 1321E; type: functional
[15] = test system: Pseudomonas aeruginosa; assay: Antibacterial activity against Pseudomonas aeruginosa 9027; type: functional
[16] = test system: Mus musculus; assay: In vivo therapeutic efficacy in systemic infections caused by Escherichia coli 078 in mice, at a single subcutaneous administration; type: functional; conditions: sc, read-out: PD50
[17] = test system: Klebsiella aerogenes; assay: Antibacterial activity against Klebsiella aerogenes 1522E; type: functional

| SMILES | MIC [1] [µg/mL] | Relative t1/2 [2] | ED50 [3] [mg/kg] | MIC [4] [µg/mL] | MIC [5] [µg/mL] | MIC [6] [µg/mL] | ED50 [7] [mg/kg] | MIC [8] [µg/mL] | MIC [9] [µg/mL] | MIC [10] [µg/mL] | MIC [11] [µg/mL] | MIC [12] [µg/mL] | ED50 [13] [mg/kg] | MIC [14] [µg/mL] | MIC [15] [µg/mL] | ED50 [16] [mg/kg] | MIC [17] [µg/mL] |
| --- | --- | --- | --- | --- | --- | --- | --- | --- | --- | --- | --- | --- | --- | --- | --- | --- | --- |
| C[C@@H](O)[C@H]1C(=O)N2C(C(=O)O)=C(S[C@@H]3CN[C@H](/C=C/c4ccns4)C3)[C@H](C)[C@H]12 | 0.195 (≈ 0.463 µM) | 3.36 | 6.17 | 0.025 (≈ 0.0593 µM) | 0.004 (≈ 0.00949 µM) | 0.049 (≈ 0.116 µM) | 0.32 | 0.391 (≈ 0.928 µM) | 0.025 (≈ 0.0593 µM) | 0.013 (≈ 0.0308 µM) | 0.013 (≈ 0.0308 µM) | 0.025 (≈ 0.0593 µM) | 1.27 | 0.049 (≈ 0.116 µM) | 0.391 (≈ 0.928 µM) | 0.32 | 0.049 (≈ 0.116 µM) |
| C[C@@H](O)[C@H]1C(=O)N2C(C(=O)O)=C(S[C@@H]3CN[C@H](/C=C/c4ccsn4)C3)[C@H](C)[C@H]12 | 0.391 (≈ 0.928 µM) | 1.42 |  | 0.025 (≈ 0.0593 µM) | 0.007 (≈ 0.0166 µM) | 0.049 (≈ 0.116 µM) |  | 1.56 (≈ 3.71 µM) | 0.049 (≈ 0.116 µM) | 0.013 (≈ 0.0308 µM) | 0.025 (≈ 0.0593 µM) | 0.049 (≈ 0.116 µM) |  | 0.025 (≈ 0.0593 µM) | 1.56 (≈ 3.71 µM) |  | 0.098 (≈ 0.232 µM) |
| C[C@@H](O)[C@H]1C(=O)N2C(C(=O)O)=C(SCCNC=N)C[C@H]12.O [IMIPENEM] | 0.195 | 0.19 |  | 0.025 | 0.007 | 0.781 |  | 1.56 | 0.195 | 0.013 | 0.025 | 0.098 |  | 0.195 | 0.781 |  | 0.391 |
| C[C@@H](O)[C@H]1C(=O)N2C(C(=O)O)=C(S[C@@H]3CN[C@H](/C=C/c4ccno4)C3)[C@H](C)[C@H]12 | 0.098 (≈ 0.242 µM) | 1.95 |  | 0.049 (≈ 0.121 µM) | 0.004 (≈ 0.00986 µM) | 0.049 (≈ 0.121 µM) |  | 0.195 (≈ 0.481 µM) | 0.025 (≈ 0.0617 µM) | 0.013 (≈ 0.0321 µM) | 0.025 (≈ 0.0617 µM) | 0.025 (≈ 0.0617 µM) |  | 0.025 (≈ 0.0617 µM) | 0.195 (≈ 0.481 µM) |  | 0.049 (≈ 0.121 µM) |
| C[C@@H](O)[C@H]1C(=O)N2C(C(=O)O)=C(S[C@@H]3CN[C@H](C(=O)N(C)C)C3)[C@H](C)[C@H]12 [MEROPENEM] | 0.049 (≈ 0.128 µM) | 1 | 5.43 | 0.195 (≈ 0.509 µM) | 0.013 (≈ 0.0339 µM) | 0.049 (≈ 0.128 µM) | 4.72 | 0.195 (≈ 0.509 µM) | 0.025 (≈ 0.0652 µM) | 0.098 (≈ 0.256 µM) | 0.195 (≈ 0.509 µM) | 0.025 (≈ 0.0652 µM) | 4.49 | 0.025 (≈ 0.0652 µM) | 0.195 (≈ 0.509 µM) | 1.11 | 0.049 (≈ 0.128 µM) |
